Experimental data: patent US11702400B2, “Salt types, crystal forms, and preparation methods for benzopyrazole compounds as RHO kinase inhibitors” (MEDSHINE DISCOVERY INC., priority 2019, dated 2023)

How the values were obtained:
[1] = Solid stability test of the crystal form B of the compound of formula (II-2) (XRPD); assay type: physicochemical
Protocol: About 10 mg of the crystal form was accurately weighed and added to a dry and clean glass flask, spread into a thin layer, covered with aluminum foil, pierced small holes and placed under the influence factor test conditions and under accelerated conditions. Samples placed under illumination (visible light 1200000 Lux, UV 200 W) conditions were placed in clear glass flasks, fully exposed, and samples used for XRPD detection were placed separately.
After the samples were removed at the time point, the cover was covered, and the flask was sealed using sealing film, and stored in −20° C. refrigerator. When preparing the sample, the sample was removed from the refrigerator, restored to room temperature; 80% ACN (10 mL) was added, and the sample was dissolved by sonication for 2 min to obtain a solution with a concentration of about 1 mg/mL, then the liquid phase was used for injection analysis, and the detection results were compared with the initial detection results on day 0.
Preparation of standard solution on day 0: About 10 mg of the crystal form was weighed and added to a 10 mL volumetric flask, dissolved with 80% ACN and the volume was fixed to the scale.

[2] = Pharmacokinetic study of the racemate of the compound of formula (I) in SD rats; assay type: in vivo
Protocol: 2.1 Pharmacokinetic Study of the Racemate of the Compound of Formula (I) in SD Rats
Experimental purpose: To study the pharmacokinetics of the compounds in SD rats
Experimental material: SD rats (male, 7-10 weeks old, WTLH/SLAC)
Experimental procedure: The pharmacokinetic characteristics of the compounds were tested in rodents after intravenous (IV) and oral (PO) administration using standard protocols. The candidate compounds were prepared into 0.2 mg/mL clarified solutions and administrated to rats for single intravenous injection and oral administration. The solvent for both intravenous and oral administration was 5% DMSO/95% (10% hydroxypropyl β-cyclodextrin) aqueous solution. […] Whole blood samples were collected within 24 hours, centrifuged at 3000 g for 15 minutes, and the supernatant was separated to obtain plasma samples, and the proteins were precipitated by adding acetonitrile solution containing internal standard; the mixture was well mixed and centrifuged, and the supernatant was injected for quantitative analysis of plasma drug concentrations by LC-MS/MS analysis method, and pharmacokinetic parameters were calculated, such as peak concentration (Cmax), clearance rate (CL), half-life (T1/2), […] (Vdss), area under the drug-time curve (AUC0-last), bioavailability (F), etc.

ROCK1 = ROCK1 (Homo sapiens, UniProt Q13464); assay: In vitro evaluation of ROCK protein kinase inhibitory activity (33P-ATP filter-binding), ROCK1; assay type: biochemical; details: 1 nM kinase, 20 μM Long S6 Kinase substrate peptide, 2 hours room temperature
Protocol: (§1) 1. In Vitro Evaluation of ROCK Protein Kinase Inhibitory Activity
(§2) Experimental purpose: To detect the IC50 value of ROCK protein kinase inhibition of compounds.
(§3) Experimental materials: assay buffer solution: 20 mM 4-hydroxyethyl piperazine ethanesulfonic acid (pH 7.5), 10 mM magnesium chloride, 1 mM ethylene glycol diethyl ether diaminetetraacetic acid, 0.02% polyoxyethylene lauryl ether, 0.02 mg/mL bovine serum albumin, 0.1 mM sodium vanadate, 2 mM dithiothreitol, 1% DMSO.
Experimental operation: ROCK protein kinase substrate Long S6 Kinase substrate peptide was added to a freshly prepared buffer solution at a concentration of 20 μM, then 1 nM ROCK protein kinase was added, and the mixture was stirred evenly. A series of DMSO diluents containing the compounds to be tested were added with Echo550 (started at […], diluted by 3 times series), preincubated at room temperature for 20 minutes, and ^33P-ATP (radiation intensity 10 μCi/μL) was added to initiate the reaction, and the reaction was carried out for 2 hours at room temperature. […] Radiation intensity was detected using the Filter-Binding method.
(§4) The protein kinase inhibitory activity of the compound was expressed as the residual protein kinase activity relative to the blank substrate (DMSO alone). IC50 values and curves were calculated using the Prism software package (GraphPad Software, San Diego Calif., USA).

ROCK2 = ROCK2 (Homo sapiens, UniProt O75116); assay: In vitro evaluation of ROCK protein kinase inhibitory activity (33P-ATP filter-binding), ROCK2; assay type: biochemical
Protocol: as §1, §2, §3
Experimental operation: ROCK protein kinase substrate Long S6 Kinase substrate peptide was added to a freshly prepared buffer solution at a concentration of 20 μM, then 1 nM ROCK protein kinase was added, and the mixture was stirred evenly. A series of DMSO diluents containing the compounds to be tested were added with Echo550 (started at […], diluted by 3 times series), preincubated at room temperature for 20 minutes, and ^33P-ATP (radiation intensity 10 μCi/μL) was added to initiate the reaction, and the reaction was carried out for 2 hours at room temperature. The mixture was then filtered using P81 ion exchange paper (Whatman #3698-915) and washed with 0.75% phosphoric acid. Radiation intensity was detected using the Filter-Binding method.
as §4

Chain of ROCK2 (O75116 whole entry): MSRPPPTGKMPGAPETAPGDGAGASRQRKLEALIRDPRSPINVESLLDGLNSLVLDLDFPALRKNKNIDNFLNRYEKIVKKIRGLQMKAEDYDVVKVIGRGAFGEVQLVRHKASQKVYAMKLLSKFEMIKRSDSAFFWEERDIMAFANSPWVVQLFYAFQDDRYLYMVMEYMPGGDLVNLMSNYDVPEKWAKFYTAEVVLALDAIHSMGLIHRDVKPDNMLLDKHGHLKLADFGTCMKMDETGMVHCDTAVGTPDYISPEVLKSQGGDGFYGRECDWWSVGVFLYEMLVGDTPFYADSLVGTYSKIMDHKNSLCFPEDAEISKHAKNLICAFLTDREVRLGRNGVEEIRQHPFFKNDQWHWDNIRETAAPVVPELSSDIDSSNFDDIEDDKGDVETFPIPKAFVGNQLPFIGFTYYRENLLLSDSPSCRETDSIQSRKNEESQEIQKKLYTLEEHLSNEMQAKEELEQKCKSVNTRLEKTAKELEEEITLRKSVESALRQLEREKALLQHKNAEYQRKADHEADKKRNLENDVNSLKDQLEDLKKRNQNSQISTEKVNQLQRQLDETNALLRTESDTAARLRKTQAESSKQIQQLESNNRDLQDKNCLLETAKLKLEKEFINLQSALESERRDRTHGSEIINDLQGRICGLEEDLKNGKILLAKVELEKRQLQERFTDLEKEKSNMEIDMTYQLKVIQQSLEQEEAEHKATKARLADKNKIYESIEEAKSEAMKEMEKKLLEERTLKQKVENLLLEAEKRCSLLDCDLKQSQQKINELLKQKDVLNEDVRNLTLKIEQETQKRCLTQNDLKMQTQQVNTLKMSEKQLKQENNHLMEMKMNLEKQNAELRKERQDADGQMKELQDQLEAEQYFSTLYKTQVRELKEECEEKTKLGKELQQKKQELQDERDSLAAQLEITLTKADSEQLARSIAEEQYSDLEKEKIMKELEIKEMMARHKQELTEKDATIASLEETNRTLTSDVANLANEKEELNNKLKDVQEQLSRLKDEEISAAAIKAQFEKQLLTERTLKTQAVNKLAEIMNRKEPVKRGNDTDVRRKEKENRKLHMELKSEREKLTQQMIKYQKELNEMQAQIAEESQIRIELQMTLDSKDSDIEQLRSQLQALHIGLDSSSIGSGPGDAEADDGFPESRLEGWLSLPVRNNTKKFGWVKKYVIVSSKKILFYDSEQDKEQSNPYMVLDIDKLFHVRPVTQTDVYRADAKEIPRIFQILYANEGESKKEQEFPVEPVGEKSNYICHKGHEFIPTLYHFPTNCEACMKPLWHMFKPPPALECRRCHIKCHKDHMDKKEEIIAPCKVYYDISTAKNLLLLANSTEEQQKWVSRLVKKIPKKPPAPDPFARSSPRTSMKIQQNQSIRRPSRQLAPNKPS
Chain of ROCK1 (Q13464 whole entry): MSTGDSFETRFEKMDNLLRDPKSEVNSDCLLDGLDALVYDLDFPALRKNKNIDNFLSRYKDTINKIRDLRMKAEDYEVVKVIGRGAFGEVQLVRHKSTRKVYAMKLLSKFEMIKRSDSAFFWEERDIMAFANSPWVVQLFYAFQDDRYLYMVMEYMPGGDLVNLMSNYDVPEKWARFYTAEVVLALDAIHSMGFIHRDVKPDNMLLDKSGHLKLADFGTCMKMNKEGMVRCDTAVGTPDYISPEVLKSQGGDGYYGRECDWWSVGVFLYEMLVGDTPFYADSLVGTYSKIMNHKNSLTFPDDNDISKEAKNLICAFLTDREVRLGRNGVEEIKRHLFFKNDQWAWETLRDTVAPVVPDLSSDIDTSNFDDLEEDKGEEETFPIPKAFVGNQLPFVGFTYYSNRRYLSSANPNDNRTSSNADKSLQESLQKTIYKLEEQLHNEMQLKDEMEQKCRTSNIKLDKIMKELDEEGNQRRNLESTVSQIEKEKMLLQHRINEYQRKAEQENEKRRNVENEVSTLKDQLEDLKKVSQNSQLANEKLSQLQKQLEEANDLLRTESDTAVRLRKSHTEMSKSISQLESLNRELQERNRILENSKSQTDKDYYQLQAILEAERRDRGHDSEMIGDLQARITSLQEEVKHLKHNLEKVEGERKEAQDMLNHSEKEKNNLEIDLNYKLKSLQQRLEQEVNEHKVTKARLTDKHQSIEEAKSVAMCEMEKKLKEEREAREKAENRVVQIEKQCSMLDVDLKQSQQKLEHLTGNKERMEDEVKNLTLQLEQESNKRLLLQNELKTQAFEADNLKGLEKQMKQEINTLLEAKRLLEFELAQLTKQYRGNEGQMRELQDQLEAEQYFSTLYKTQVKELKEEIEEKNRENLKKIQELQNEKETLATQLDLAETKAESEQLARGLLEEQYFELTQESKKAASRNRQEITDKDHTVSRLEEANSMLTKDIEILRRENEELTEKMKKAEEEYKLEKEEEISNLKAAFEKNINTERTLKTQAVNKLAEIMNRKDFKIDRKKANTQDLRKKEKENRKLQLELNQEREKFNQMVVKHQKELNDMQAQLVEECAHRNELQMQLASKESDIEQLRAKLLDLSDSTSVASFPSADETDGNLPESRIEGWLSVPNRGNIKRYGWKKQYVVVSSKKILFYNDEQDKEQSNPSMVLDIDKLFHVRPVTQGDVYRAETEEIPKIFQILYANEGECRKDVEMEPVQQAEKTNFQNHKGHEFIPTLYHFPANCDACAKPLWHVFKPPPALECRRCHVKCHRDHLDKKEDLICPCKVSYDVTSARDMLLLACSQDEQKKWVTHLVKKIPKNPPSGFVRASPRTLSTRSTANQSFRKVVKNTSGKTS

For `CC(=O)O.COc1cccc(C(CN)NC(=O)c2cc(-c3ccc4[nH]nc(C)c4c3)ccn2)c1` (centres unmarked), the Crystal form ([1]; 0 day) was “Crystal form B”, the Crystal form ([1]; High humidity (relative humidity 75%, open), 5 days) was “Crystal form B” and the Crystal form ([1]; High humidity (relative humidity 75%, open), 10 days) was “Crystal form B”. The Crystal form ([1]; High humidity (relative humidity 92.5%, open), 5 days) was “Crystal form B”, the Crystal form ([1]; High humidity (relative humidity 92.5%, open), 10 days) was “Crystal form B” and the Crystal form ([1]; High temperature (60° C., open), 5 days) was “Crystal form B”. For the same molecule, the Crystal form ([1]; High temperature (60° C., open), 10 days) was “Crystal form B”, the Crystal form ([1]; High temperature and humidity (40° C. relative humidity 75%, open), first entry, 5 days) was “Crystal form B” and the Crystal form ([1]; High temperature and humidity (40° C. relative humidity 75%, open), first entry, 10 days) was “Crystal form B”. The Crystal form ([1]; High temperature and humidity (40° C. relative humidity 75%, open), second entry, 5 days) was “Crystal form B”, the Crystal form ([1]; High temperature and humidity (40° C. relative humidity 75%, open), second entry, 10 days) was “Crystal form B” and the Crystal form ([1]; Illumination (total illuminance = 1.2 × 10^6 Lux·hr/near UV = 200 w·hr/m^2, open), 5 days) was “Crystal form B”. The Crystal form ([1]; Illumination (total illuminance = 1.2 × 10^6 Lux·hr/near UV = 200 w·hr/m^2, open), 10 days) was “Crystal form B” and the “solid stability (conclusion in words)” value ([1]; high temperature, high humidity and strong illumination conditions) was “good stability”.

In the case of `COc1cccc(C(CN)NC(=O)c2cc(-c3ccc4[nH]nc(C)c4c3)ccn2)c1` (racemic) [Racemate of compound of formula (I)], the “pharmacokinetic properties (conclusion in words)” value [2] is reported as “good pharmacokinetic properties” and the Vd ([2]; rat, plasma, male, IV 1 mg/kg, read-out: Tissue distribution Vdss) is reported as 6 L/kg.

In the case of `COc1cccc([C@@H](CN)NC(=O)c2cc(-c3ccc4[nH]nc(C)c4c3)ccn2)c1` [Compound of formula (II)], the IC50 (ROCK1) is reported as 13 nM, the “inhibitory activity against ROCK2 (conclusion in words)” value (ROCK2) is reported as “good inhibitory activity” and the IC50 (ROCK2; 1 nM kinase, 20 μM Long S6 Kinase substrate peptide, 33P-ATP, 2 hours room temperature) is reported as 2 nM. The “selectivity for ROCK2 (conclusion in words)” value (ROCK2; ROCK2 versus ROCK1) was “some selectivity”.
